Test results reported in ChEMBL document CHEMBL3885861, “Open TG-GATES”.

Species: Rattus norvegicus
Test: Open TG-GATES - Regimen: Daily Repeat
Format: toxicity, organism-based, Sprague-Dawley
Parameters: regimen Daily Repeat, gender Male, age 6 weeks
Conditions: in vivo, po, 6 mg/kg, […], route gavage, dose level Low; for KIDNEY_L / KIDNEY_R / KIDNEY_TOTAL: tissue Kidney; for LIVER: tissue Liver; for A/G / ALP / ALT / AST / BUN / CRE / Ca / Cl / DBIL / GLC / IP / K / LDH / Na / PL / RALB / TBIL / TC / TG / TP / gamma-GTP: tissue Plasma

Q: `CC(C)NNC(=O)c1ccncc1` [IPRONIAZID] was tested. Which Lym (tissue Blood, time 28 day) did it give?
A: The Lym was 78.8%.

Q: And the MCH (tissue Blood, time 28 day)?
A: The MCH was 20 pg.

Q: And the MCHC (tissue Blood, time 28 day)?
A: Its MCHC is 35.1%.

Q: What about the MCV (tissue Blood, time 28 day) of the same compound?
A: Its MCV is 56.8 fL.

Q: And the Mono (tissue Blood, time 28 day)?
A: Its Mono is 2%.

Q: What about the Neu (tissue Blood, time 28 day) of the same compound?
A: Its Neu is 17%.

Q: And the PT (tissue Blood, time 28 day)?
A: Its PT is 15.8 s.

Q: And the Plat (tissue Blood, time 28 day)?
A: The Plat was 111.4 x10_4/uL.

Q: And the RBC (tissue Blood, time 28 day)?
A: The RBC was 687.6 x10_4/ul.

Q: What about the Ret (tissue Blood, time 28 day) of the same compound?
A: Its Ret is 4.7%.

Q: What about the WBC (tissue Blood, time 28 day) of the same compound?
A: Its WBC is 109.2 x10_2/uL.

Q: And the KIDNEY_L (time 7 day)?
A: The KIDNEY_L was 1 g.

Q: And the KIDNEY_R (time 7 day)?
A: Its KIDNEY_R is 1 g.

Q: And the KIDNEY_TOTAL (time 7 day)?
A: Its KIDNEY_TOTAL is 2.1 g.

Q: And the KIDNEY_L (time 14 day)?
A: Its KIDNEY_L is 1.1 g.

Q: What about the KIDNEY_R (time 14 day) of the same compound?
A: Its KIDNEY_R is 1.1 g.

Q: And the KIDNEY_TOTAL (time 14 day)?
A: Its KIDNEY_TOTAL is 2.2 g.

Q: And the KIDNEY_L (time 28 day)?
A: Its KIDNEY_L is 1.3 g.

Q: What about the KIDNEY_R (time 28 day) of the same compound?
A: Its KIDNEY_R is 1.3 g.

Q: And the KIDNEY_TOTAL (time 28 day)?
A: Its KIDNEY_TOTAL is 2.6 g.

Q: What about the LIVER (time 7 day) of the same compound?
A: The LIVER was 10.7 g.

Q: And the LIVER (time 14 day)?
A: Its LIVER is 11.9 g.

Q: What about the LIVER (time 28 day) of the same compound?
A: Its LIVER is 14.7 g.

Q: And the A/G (time 7 day)?
A: The A/G was 1.2.

Q: What about the ALP (time 7 day) of the same compound?
A: Its ALP is 1548 IU/L.

Q: And the ALT (time 7 day)?
A: The ALT was 39.8 IU/L.

Q: What about the AST (time 7 day) of the same compound?
A: The AST was 72.8 IU/L.

Q: And the BUN (time 7 day)?
A: The BUN was 18 mg/dL.

Q: And the CRE (time 7 day)?
A: The CRE was 0.2 mg/dL.

Q: What about the Ca (time 7 day) of the same compound?
A: The Ca was 10.6 mg/dL.

Q: And the Cl (time 7 day)?
A: The Cl was 107.6 meq/L.

Q: What about the DBIL (time 7 day) of the same compound?
A: The DBIL was 0 mg/dL.

Q: What about the GLC (time 7 day) of the same compound?
A: The GLC was 189.4 mg/dL.

Q: What about the IP (time 7 day) of the same compound?
A: The IP was 6.5 mg/dL.

Q: What about the K (time 7 day) of the same compound?
A: The K was 4.3 meq/L.

Q: What about the LDH (time 7 day) of the same compound?
A: Its LDH is 234.6 IU/L.

Q: What about the Na (time 7 day) of the same compound?
A: The Na was 141 meq/L.

Q: And the PL (time 7 day)?
A: Its PL is 153.2 mg/dL.

Q: What about the RALB (time 7 day) of the same compound?
A: The RALB was 3.1 g/dL.

Q: What about the TBIL (time 7 day) of the same compound?
A: Its TBIL is 0.002 mg/dL.

Q: And the TC (time 7 day)?
A: The TC was 76.8 mg/dL.

Q: And the TG (time 7 day)?
A: Its TG is 125.8 mg/dL.

Q: And the TP (time 7 day)?
A: Its TP is 5.6 g/dL.

Q: And the gamma-GTP (time 7 day)?
A: Its gamma-GTP is 1.4 IU/L.

Q: What about the A/G (time 14 day) of the same compound?
A: Its A/G is 1.1.

Q: What about the ALP (time 14 day) of the same compound?
A: Its ALP is 1195.8 IU/L.

Q: And the ALT (time 14 day)?
A: Its ALT is 41 IU/L.

Q: What about the AST (time 14 day) of the same compound?
A: The AST was 69 IU/L.

Q: And the BUN (time 14 day)?
A: Its BUN is 18 mg/dL.

Q: What about the CRE (time 14 day) of the same compound?
A: Its CRE is 0.2 mg/dL.

Q: What about the Ca (time 14 day) of the same compound?
A: The Ca was 10.5 mg/dL.

Q: What about the Cl (time 14 day) of the same compound?
A: The Cl was 107.4 meq/L.

Q: And the DBIL (time 14 day)?
A: The DBIL was 0 mg/dL.

Q: And the GLC (time 14 day)?
A: The GLC was 180 mg/dL.

Q: And the IP (time 14 day)?
A: Its IP is 6.5 mg/dL.

Q: And the K (time 14 day)?
A: Its K is 4.3 meq/L.

Q: What about the LDH (time 14 day) of the same compound?
A: The LDH was 160.8 IU/L.

Q: And the Na (time 14 day)?
A: The Na was 141.2 meq/L.

Q: What about the PL (time 14 day) of the same compound?
A: The PL was 161 mg/dL.

Q: And the RALB (time 14 day)?
A: The RALB was 3 g/dL.

Q: What about the TBIL (time 14 day) of the same compound?
A: Its TBIL is 0.004 mg/dL.

Q: What about the TC (time 14 day) of the same compound?
A: Its TC is 80.6 mg/dL.

Q: And the TG (time 14 day)?
A: Its TG is 148 mg/dL.

Q: And the TP (time 14 day)?
A: Its TP is 5.7 g/dL.

Q: What about the gamma-GTP (time 14 day) of the same compound?
A: The gamma-GTP was 2.2 IU/L.

Q: What about the A/G (time 28 day) of the same compound?
A: Its A/G is 1.1.

Q: And the ALP (time 28 day)?
A: The ALP was 1033.6 IU/L.

Q: And the ALT (time 28 day)?
A: The ALT was 42.6 IU/L.

Q: What about the AST (time 28 day) of the same compound?
A: Its AST is 71.8 IU/L.

Q: And the BUN (time 28 day)?
A: Its BUN is 18 mg/dL.

Q: What about the CRE (time 28 day) of the same compound?
A: The CRE was 0.2 mg/dL.

Q: What about the Ca (time 28 day) of the same compound?
A: The Ca was 10.6 mg/dL.

Q: What about the Cl (time 28 day) of the same compound?
A: The Cl was 106.6 meq/L.

Q: And the DBIL (time 28 day)?
A: The DBIL was 0 mg/dL.

Q: And the GLC (time 28 day)?
A: The GLC was 191 mg/dL.

Q: And the IP (time 28 day)?
A: Its IP is 6.2 mg/dL.

Q: What about the K (time 28 day) of the same compound?
A: Its K is 4.3 meq/L.

Q: And the LDH (time 28 day)?
A: The LDH was 167.4 IU/L.

Q: And the Na (time 28 day)?
A: The Na was 142 meq/L.

Q: And the PL (time 28 day)?
A: The PL was 151.6 mg/dL.

Q: What about the RALB (time 28 day) of the same compound?
A: The RALB was 3.2 g/dL.

Q: What about the TBIL (time 28 day) of the same compound?
A: Its TBIL is 0.02 mg/dL.

Q: What about the TC (time 28 day) of the same compound?
A: Its TC is 77.6 mg/dL.

Q: And the TG (time 28 day)?
A: The TG was 135.6 mg/dL.

Q: What about the TP (time 28 day) of the same compound?
A: Its TP is 6 g/dL.

Q: What about the gamma-GTP (time 28 day) of the same compound?
A: Its gamma-GTP is 2 IU/L.
